Calls of active or inactive are those of the source.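 The calls were made as follows: active = a tumour-causing dose and a tumour site recorded for mice in at least one sex group; inconclusive = only government mouse studies exist and were judged inadequate; inactive = mouse studies exist but none gave tumours.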

The subject of this data set is mouse carcinogenicity bioassay, TD50 from CPDB. Put plainly: DSSTox (CPDBAS) Carcinogenic Potency Database Summary Mouse Bioassay Results. From the text: The Carcinogenic Potency Database (CPDB) is a unique and widely used international resource of the results of over 6500 chronic, long-term animal cancer tests on over 1500 chemical substances. The CPDB provides easy access to the bioassay literature, with qualitative and quantitative analyses of both positive and negative experiments that have been published over the past 50 years in the general literature and by the National Cancer Institute/National Toxicology Program. The CPDB standardizes the diverse literature of cancer bioassays that vary widely in protocol, histopathological examination and nomenclature, and in the published author's choices of what information to provide in their papers. Results are reported in the CPDB for tests in rats, mice, hamsters, dogs, and nonhuman primates, and are based on the most positive result among all experiments for each sex-species. The DSSTox CPDBAS (all species) file incorporates data from the CPDB Summary Tables for the full list of over 1500 chemical substances tested in at least one species. Summary bioassay results for Mouse (TD50, tumor sites, male, female, both sexes) are provided in the CPDB Summary Tables and the DSSTox CPDBAS file for over 1000 chemical substances.
TD50 is a standardized quantitative measure of carcinogenic potency (analogous to an LD50) and is reported in the CPDB Summary Table for each species. Activity Score for actives is computed by mapping of LOG10 (1/TD50_Mouse_mmol) activity values spanning range [MIN, MAX] onto Integer 1-100 Activity Score range, where 100 is highest potency and 1 is lowest: Activity Score = 100 * INTEGER[(log10(1/Activity) - MIN)/(MAX […] MIN)]. If activity is reported but no TD50_Mouse_mmol value is computed, such as for a mixture, the Activity Score is assigned the activity value "50". […] Target sites are reported for each sex-species group with a positive result in the CPDB on the basis of a positive author's opinion for the particular site, using all results from both the general literature and NCI/NTP bioassays. If a chemical has two or more target sites listed, the results may be from different experiments, and a single site may be a target organ in more than one experiment, as well. Blank entry in TargetSites field indicates no results reported.

[1] abbreviates: TD50_Mouse_Note: no positive results, TargetSites_Mouse_Female: no positive results.
Where [2] appears, read: TD50_Mouse_Note: TD50 is harmonic mean of more than one positive test, TargetSites_Mouse_Female: liver.
The mark [3] stands for this setting: TD50_Mouse_Note: TD50 is harmonic mean of more than one positive test, TargetSites_Mouse_Female: vascular system.
[4] abbreviates: TD50_Mouse_Note: no positive results.
Where [5] appears, read: TargetSites_Mouse_Female: no positive results.
Setting [6] is: TargetSites_Mouse_Female: liver.

For the molecule `COc1cc(/C=N/NC(=O)c2ccncc2)ccc1O`, the Potency (TargetSites_Mouse_BothSexes: liver, mammary gland) is 0.101 mmol/kg/day.

Consider `C=Cc1cccc(C)c1`, for which the outcome under setting [1] is “inactive; no positive results”. As for `CCCCOC(=O)c1ccc(O)cc1`, the outcome under setting [1] is “inactive; no positive results”. For the molecule `NNCCc1ccccc1`, for the setting “TargetSites_Mouse_Female: lung, vascular system”, the Potency was 0.0623 mmol/kg/day. On to `CCCCOC(=O)COc1ccc(Cl)cc1Cl`, for which, under setting [1], the outcome was “inactive; no positive results”. `CCC(Cl)CCC(Cl)C(Cl)CC(Cl)C(Cl)C(Cl)CCl` (centres undefined): the outcome (TD50_Mouse_Note: TD50 is harmonic mean of more than one positive test, TD50_Mouse_mmol was not calculated for this mixture, but Activiity, TargetSites_Mouse_Female: liver, thyroid gland) was “active; liver”. `O=c1ccc2ccccc2o1`: the Potency (TD50_Mouse_Note: TD50 is harmonic mean of more than one positive test, TargetSites_Mouse_Female: liver, lung) is 0.705 mmol/kg/day. Regarding `Nc1ccc(-c2ccc(N)c(Cl)c2)cc1Cl`, the Potency (TD50_Mouse_Note: TD50 value is overestimated as upper 99% confidence limit from study with 100% tumor incidence but no lifetable, harmoni) was 0.0377 mmol/kg/day.

Take `CC(Cl)CCl` (centres undefined): under setting [2], the Potency was 2.44 mmol/kg/day. On to `Cc1ccc(N=Nc2c(O)c(S(=O)(=O)O)cc3ccc(S(=O)(=O)O)cc23)c(C)c1`, for which, under setting [2], the Potency was 1.49 mmol/kg/day. `O=c1cc(CO)occ1O`: under “TD50_Mouse_Note: TD50 is harmonic mean of more than one positive test, TargetSites_Mouse_Female: thyroid gland”, the Potency was 4.63 mmol/kg/day. In the case of `Cn1cc(OCC(O)CNC(C)(C)C)c2ccccc2c1=O` (centres undefined), the outcome under setting [1] was “inactive; no positive results”. Same read-out and setting: with `CC1(C)COC1=O` the entry was “inactive; no positive results”. Take `O=C(O)CCl`: under setting [1], the outcome is “inactive; no positive results”. In the case of `Cc1cc(=O)[nH]c(=S)[nH]1`, under “TargetSites_Mouse_BothSexes: no positive results”, the result was inactive. `CC(Cl)(Cl)Cl`: the outcome under setting [1] is “inactive; no positive results”. Consider `NNc1ccccc1`, for which the Potency under setting [3] was 0.493 mmol/kg/day. Further, the outcome under setting [1] was inactive. As to `CC[C@H](C)C(=O)O[C@H]1C[C@@H](C)C=C2C=C[C@H](C)[C@H](CC[C@@H]3C[C@@H](O)CC(=O)O3)[C@H]21`, where the note is “TD50_Mouse_Note: TD50 is harmonic mean of more than one positive test, TargetSites_Mouse_Female: liver, lung, stomach”, the Potency was 1.27 mmol/kg/day. As to `CCCN(CCC)c1c([N+](=O)[O-])cc(C(F)(F)F)cc1[N+](=O)[O-]`, the Potency (TargetSites_Mouse_Female: liver, lung, stomach) is 0.984 mmol/kg/day. For the molecule `CC(C)=CCC/C(C)=C/C=O`, the outcome under setting [1] is “inactive; no positive results”. For `COc1ccccc1[N+](=O)[O-]`, under setting [2], the Potency is 1.16 mmol/kg/day. Take `C[C@]12C=CC(=O)C=C1CC[C@@H]1[C@@H]2C(=O)C[C@@]2(C)[C@H]1CC[C@]2(O)C(=O)CO`: under setting [1], the outcome was “inactive; no positive results”. For `O=C1C2CC=CCC2C(=O)N1SC(Cl)(Cl)Cl` (centres undefined), the Potency (TD50_Mouse_Note: TD50 is harmonic mean of more than one positive test, TargetSites_Mouse_Female: small intestine) is 7.02 mmol/kg/day. Take `[Cl-].[Hg+]`: the outcome under setting [4] is “inactive; no positive results”. As to `O=C/C=C/c1ccccc1`, the outcome under setting [1] is “inactive; no positive results”. As to `CC(C)OC(=O)COc1ccc(Cl)cc1Cl`, the outcome under setting [1] was “inactive; no positive results”. `CC(CCl)OC(C)CCl` (centres undefined): the Potency (TD50_Mouse_Note: TD50 is harmonic mean of more than one positive test, TargetSites_Mouse_Female: lung) is 1.12 mmol/kg/day. As for `CCCOC(=O)c1cc(O)c(O)c(O)c1`, the outcome under setting [1] is “inactive; no positive results”. In the case of `CC(=O)Nc1nnc(-c2ccc([N+](=O)[O-])o2)s1`, the Potency (TargetSites_Mouse_Female: stomach) is 0.0265 mmol/kg/day. On to `S=c1[nH]c2ccccc2s1`, for which, under setting [1], the outcome is “inactive; no positive results”. In the case of `CC(=O)Nc1ccc(O)cc1`, the Potency under setting [2] was 10.7 mmol/kg/day. In the case of `COc1ccc(N)c(C)c1`, the outcome under setting [1] is “inactive; ntp bioassay inadequate”.

As for `CCNC(=O)Nc1ncc([N+](=O)[O-])s1`, under setting [5], the Potency was 3.51 mmol/kg/day. In the case of `O=S(=O)(c1ccc(Cl)cc1)c1ccc(Cl)cc1`, the outcome under setting [1] was “inactive; no positive results”. Take `Cc1cccc(Nc2cc(Cl)nc(SCC(=O)NCCO)n2)c1C`: the Potency under setting [6] is 0.122 mmol/kg/day. In the case of `O=P(OCCCl)(OCCCl)OCCCl`, the Potency (TD50_Mouse_Note: TD50 is harmonic mean of more than one positive test, TargetSites_Mouse_Female: hematopoietic system, stomach) is 3.39 mmol/kg/day. For the molecule `CCOP(=S)(OCC)Oc1cc(C)nc(C(C)C)n1`, the outcome under setting [1] is “inactive; no positive results”. On to `O=C(O[C@@H]1Cc2c(O)cc(O)cc2O[C@@H]1c1cc(O)c(O)c(O)c1)c1cc(O)c(O)c(O)c1`, for which, under setting [4], the outcome is “inactive; no positive results”. Regarding `S=C([S-])NCCNC(=S)[S-].[Zn+2]`, under setting [1], the outcome is “inactive; no positive results”.

With `Cn1cnc([N+](=O)[O-])c1Sc1ncnc2nc[nH]c12`, under “TargetSites_Mouse_Female: hematopoietic system, vascular system”, the Potency was 0.0322 mmol/kg/day. As to `Cc1ccc(C)c(OCCCC(C)(C)C(=O)O)c1`, the outcome under setting [1] is “inactive; no positive results”. With `CC(=O)OCc1ccccc1`, the Potency (TD50_Mouse_Note: TD50 is harmonic mean of more than one positive test, TargetSites_Mouse_Female: liver, stomach) was 9.59 mmol/kg/day. `CC(=O)[O][Hg][c]1ccccc1`: the outcome under setting [1] was “inactive; no positive results”. Still for that read-out and setting: with `N[C@@H](CCC(=O)NNc1ccc(CO)cc1)C(=O)O` the entry was “inactive; no positive results”. `Cc1cc2ncccc2c2nc(N)n(C)c12`: for the setting “TD50_Mouse_Note: TD50 is harmonic mean of more than one positive test, TargetSites_Mouse_Female: large intestine, liver, stomach”, the Potency was 0.073 mmol/kg/day. Take `C/C=C/c1ccc2c(c1)OCO2`: the outcome under setting [1] is “inactive; no positive results”. On the same count and under the same terms, with `c1ccc(Nc2ccc(Nc3ccccc3)cc2)cc1` the entry was “inactive; no positive results”; with `O=C(Nc1ccc([N+](=O)[O-])cc1Cl)c1cc(Cl)ccc1O`, “inactive; ntp bioassay inadequate”.

As for `C=CC(=O)OCC`, the Potency (TD50_Mouse_Note: TD50 is harmonic mean of more than one positive test, TargetSites_Mouse_Female: stomach) was 3.24 mmol/kg/day.

In the case of `O=S(=O)(Oc1ccc(Cl)cc1)c1ccc(Cl)cc1`, the outcome under setting [1] is “inactive; no positive results”. Same read-out and setting: with `O=C1CCCCCN1` the entry was “inactive; no positive results”. Still for that read-out and setting: with `Cc1ccc2ccccc2c1` the entry was “inactive; no positive results”.

As for `Nc1c(Cl)cc(Cl)cc1Cl`, the Potency under setting [5] is 1.32 mmol/kg/day. With `C=CCNN`, the Potency (TD50_Mouse_Note: TD50 is harmonic mean of more than one positive test, TargetSites_Mouse_Female: lung, vascular system) is 0.315 mmol/kg/day. Take `O.O.O.O.O=C([O-])CC(O)(CC(=O)[O-])C(=O)[O-].[Fe+3]`: the outcome under setting [1] is “inactive; no positive results”.

In the case of `CCN(Cc1cccc(S(=O)(=O)O)c1)c1ccc(C(=C2C=CC(=[N+](CC)Cc3cccc(S(=O)(=O)O)c3)C=C2)c2ccc(O)cc2S(=O)(=O)[O-])cc1`, under setting [1], the outcome was “inactive; no positive results”. With `O=S(=O)(Oc1ccc(Cl)cc1Cl)c1ccccc1`, under setting [1], the outcome is “inactive; no positive results”. For the molecule `O=[N+]([O-])c1ccc(Cl)cc1`, under setting [3], the Potency was 3 mmol/kg/day. Regarding `CC(O)CCl` (centres undefined), the outcome under setting [1] is “inactive; no positive results”.

Consider `CCNc1nc(Cl)nc(NC(C)C)n1`, for which the outcome under setting [1] is “inactive; no positive results”.

For the molecule `CNc1ncnc2nc[nH]c12`, the outcome under setting [1] was “inactive; no positive results”. As for `ClC1=C(Cl)[C@]2(Cl)[C@@H]3[C@@H]4C[C@@H]([C@H]5O[C@@H]45)[C@@H]3[C@@]1(Cl)C2(Cl)Cl`, the Potency (TD50_Mouse_Note: TD50 is harmonic mean of more than one positive test, harmonic mean of TD50 includes a value for upper 99% confidence li, TargetSites_Mouse_Female: liver) is 0.00239 mmol/kg/day.

In the case of `CC1=CC(=O)CC(C)(C)C1`, the outcome under setting [1] is “inactive; no positive results”. Turning to `O=P1(NCCCl)OCCCN1CCCl` (centres undefined), the Potency (TD50_Mouse_Note: positive test results only by intraperitoneal or intravenous injection, TargetSites_Mouse_Female: hematopoietic system) was 0.0194 mmol/kg/day. Consider `ClC(Cl)(Cl)Cl`, for which, for the setting “TD50_Mouse_Note: TD50 is harmonic mean of more than one positive test, greater than ten-fold variation among TD50 values for positive res, TargetSites_Mouse_Female: adrenal gland, liver”, the Potency is 0.218 mmol/kg/day. Consider `NC(=O)Cc1c([O-])on[n+]1Cc1ccccc1`, for which the Potency under setting [6] is 0.0437 mmol/kg/day.

For the molecule `CN(C)c1ccc(Cc2ccc(N(C)C)cc2)cc1`, the Potency under setting [6] is 0.814 mmol/kg/day. Consider `Nc1ccc(Cl)cc1N`, for which the Potency under setting [2] is 9.4 mmol/kg/day. As to `CC(=O)OC1CC(C)OC(C)O1` (centres undefined), the outcome under setting [1] is “inactive; no positive results”. With `COc1c(Cl)c(Cl)c(Cl)c(Cl)c1Cl`, the Potency under setting [5] was 0.243 mmol/kg/day. For the molecule `CC(=O)OC[C@]12C[C@H](OC(=O)CC(C)C)C(C)=C[C@H]1O[C@@H]1[C@H](O)[C@@H](OC(C)=O)[C@@]2(C)C12CO2` (some centres undefined), the Potency under setting [5] is 0.00189 mmol/kg/day. In the case of `N#Cc1c(Cl)c(Cl)c(Cl)c(C#N)c1Cl`, the outcome under setting [1] is “inactive; no positive results”.

As to `CNC[C@H](O)c1ccc(O)c(O)c1`, the outcome (TD50_Mouse_Note: only experiment is NCI/NTP bioassay inadequate, TargetSites_Mouse_Female: NTP bioassay inadequate) is “ntp bioassay inadequate”.

Values taken from PubChem BioAssay AID1199 (EPA DSSTox, 2008).
